Earlier results on 1 molecule are cited in US5637565A, “Purified form of streptogramins, its preparation and pharmaceutical compositions containing it” (Rhone-Poulenc Rorer S.A., priority 1993, dated 1997).

The conditions of the data set: purified crystalline product.

Regarding `CC1=C\[C@@H](O)CC(=O)Cc2nc(co2)C(=O)N2CCC=C2C(=O)O[C@H](C(C)C)[C@H](C)/C=C/C(=O)NC\C=C\1` [pristinamycin IIA], the bioavailability entry was “too low”.
